# What was measured:
# in vivo = conditions: mouse
# Experimental: All formulations were given by gavage with a final volume of 200 µL. At different intervals (0.5, 1, 2, 4, 8, and 24 hours), animals were subjected to anesthesia with a mixture of xylazine (10 mg/kg) and ketamine (100 mg/kg). Blood was collected by cardiac puncture, plasma was separated by centrifugation, RBCs were washed three times in saline, and plasma and RBC were stored at −20°C. After the animal was exsanguinated, the liver, lungs, and spleen were collected and frozen in liquid nitrogen until processed for primaquine quantification.
# The extraction procedure was based on Carmo et al. ([22]) and Joshi and Devarajan ([23]). Briefly, 100 µL or 100 mg of the sample was transferred to a 1.5 mL microtube. Then, 100 µL of 2% acetic acid-acidified acetonitrile and 100 µL of ultrapure water were added. Next, the samples were homogenized for 1 minute using a vortex, and 50 µL of 12.5% zinc sulfate solution was added. The samples were homogenized again for 1 minute and left to stand for 20 minutes to ensure complete protein precipitation. After this period, the samples were centrifuged at 7,500 rpm for 15 minutes at room temperature. Finally, the supernatant was collected, and 20 µL was injected into the liquid chromatograph. This process was repeated to construct the eight-point calibration curves (0.39–50 µg/mL).
# The primaquine concentrations in plasma, liver, lung, and spleen samples from mice treated with free primaquine were determined using high-performance liquid chromatography with a UV detector (HPLC-UV). Method validation followed orientations of the Guidance for Bioanalytical Method Validation from the Food and Drug Administration. The method was developed using a Waters liquid chromatography system with an Alliance e2695 Separation Module, quaternary pump, autosampler, degasser, column heater, and a dual channel UV–Vis detector (Milford, USA). The Empower 3 software was used for system control, peak integration, and data analysis. The separation was performed using an XBridge C18 reverse-phase column (150 × 4.6 mm, 5 µm) and an XBridge C18 reverse-phase pre-column (20 × 4.6 mm, 5 µm). For elution and identification of the primaquine, the mobile phase (MP) consisted of (A) potassium phosphate buffer (0.02 mol/L, pH = 3) and (Bi) acetonitrile. […] The flow rate of the MP was set at 1.0 mL/min, the column oven temperature was maintained at 35°C, and the UV detector was set at 266 nm. An injection volume of 20 µL was used, and the total run time was 13 minutes.
# The physicochemical analyses of the nanoparticles were performed in triplicate and are expressed as the mean value ± SD. Statistical significance tests were applied through mixed-model analysis of variance, using Prism GraphPad Software. […] Non-compartmental pharmacokinetic analysis was conducted using PK Solutions 2.0 (Summit Research Services, Ashland, USA). The area under the concentration-time curve was calculated using the trapezoidal method (AUC0-t) from time zero to the last data point and extrapolated to infinity (AUC0-∞). The maximum plasma concentration (Cmax) and the time taken to reach Cmax (Tmax) were obtained from the experimental data. The elimination rate constant (K) was determined from the slope of the regression line, allowing the calculation of the elimination half-life (t1/2β) using the formula 0.693 /K ([24]). All data were presented as mean ± SD.
# [1] = parameters: method as in PMID 16140485; conditions: 1 hour after intravenous administration in mice; cited from earlier work
# [2] = parameters: method as in PMID 16968913, PMID 30379233, PMID 35709685; conditions: human treatment, clinical dose; cited from earlier work
compound,measurement,setting,value
"COc1cc(NC(C)CCCN)c2ncccc2c1 (stereo not shown) [Pq, primaquine diphosphate]",Tmax,"in vivo; Swiss Webster, po, 10 mg/kg",30 min
same,liver/plasma ratio for the volume of distribution,"in vivo; Swiss Webster, po, 10 mg/kg",0.1
same,"primaquine concentrations in the liver, variation among animals","in vivo; Swiss Webster, po, 10 mg/kg, 30 minutes",3.5-110 µg of drug per 100 mg of tissue
same,Cmax,"in vivo; Swiss Webster, po, 10 mg/kg, primaquine concentrations in plasma (Cmax), variation among animals",400 to 2000 ng/mL
same,Cmax of primaquine in the liver relative to the galactose-based nanoformulations,in vivo,about twice as much
same,uptake of the drug (recovery) in the liver,[1],20%
same,Cmax in plasma,[2],around 0.1 µg/mL
